Source: US20210100777A1, “HEAT SHOCK PROTEIN (HSP) INHIBITION AND MONITORING EFFECTIVENESS THEREOF” (H. LEE MOFFITT CANCER CENTER AND RESEARCH INSTITUTE, INC., priority 2013, published 2021)

Legend:
[1] = system: BIM, Mcl-1 and BMF mRNA in vemurafenib-resistant melanoma cell lines; experiment: Quantitative real-time PCR; settings: M229R; 3 μM, 48 hours
RPMI 7951 = experiment: Growth inhibition, MTT assay; assay type: cell-based; settings: Homo sapiens, RPMI 7951 (overexpression of COT), 72 hours
Protocol: (§1) Growth inhibition. Cells were plated at a density of 2.5×10^4 cells per ml and left to grow overnight before being treated with increasing concentrations of vemurafenib or XL888. After 72 hours, the levels of growth inhibition were examined using the MTT assay (Smalley et al., Br. J. Cancer 96:445-9 (2007)). […] Vemurafenib and XL888 were dissolved in 100% DMSO and stored at −20° C. as a 10 mM solution.
(§2) Statistical analysis of GI50 values. Triplicate experiments were performed for each cell line under each drug treatment. To estimate the IC50 values for each cell line for each treatment, a 4-parameter Hill equation was used to model the nonlinear sigmoid relationship between the drug concentration and % cell survival. Briefly,
(§3) where x is the drug concentration, y is the % survival, ε is the error term. The four parameters in the model to estimate are: 1) the control-level effect (E); 2) the background-level effect (B); 3) the median effect concentration (GI50); and 4) the strength of the inhibition (m). The constraint of non-negative minimum background effect (B) is imposed so the model is biologically meaningful. Levenberg-Marquardt algorithm for nonlinear least squares was used to fit the model and estimate all four parameters for each cell line under each treatment. Estimated concentration at 50% cell survival, i.e., IC50, is estimated using the plugged-in parameters after model fitting. Note that when the control and background effects are 100% and 0%, respectively, the estimated GI50 and IC50 values would be identical. To compare the estimated IC50 values between the resistance and naïve paired of cell lines, after log transformation, a paired t-test was performed for each drug.

WM39 = experiment: Growth inhibition, MTT assay; assay type: cell-based; settings: WM39 (amplification of cyclin D1), 72 hours
Protocol: as §1, §2, §3

[2] = system: matched pairs of vemurafenib naïve and resistant melanoma cell lines and melanoma cell lines with intrinsic resistance; experiment: Growth inhibition, MTT assay; assay type: cell-based; settings: M229/M229R, M249/M249R, WM164/WM164R, 1205Lu/1205LuR; paired t-test
Protocol: as §1, §2, §3

SMILES | BMF expression [1] | IC50 (RPMI 7951) [nM] | IC50 (WM39) [nM] | difference in growth inhibition / IC50 between naïve and resistant pairs of cell lines [2]
Cn1cnc2c(F)c(Nc3ccc(Br)cc3Cl)c(C(=O)NOCCO)cc21 [MEK inhibitor] | robust induction of BMF expression |  |  | 
CCCS(=O)(=O)Nc1ccc(F)c(C(=O)c2c[nH]c3ncc(-c4ccc(Cl)cc4)cc23)c1F [vemurafenib, N-(3-{[5-(4-chlorophenyl)-1H-pyrrolo[2,3-b]pyridin-3-yl]carbonyl}-2,4-difluorophenyl)propane-1-sulfonamide] |  | > 3000 | > 3000 | statistically significant difference in the extent of growth inhibition
